Measured values taken from paper PMC4341462, “Human RNASET2 derivatives as potential anti-angiogenic agents: actin binding sequence identification and characterization” (Oncoscience, 2014).

Legend:
[1] = target: T1, Actin from rabbit muscle (Sigma A2522) (Oryctolagus cuniculus, UniProt P68135); experiment: Surface plasmon resonance (BIAcore 3000) of actin binding; details: actin on CM5 chip, amine coupling, 5 concentrations, 10 μl/min, 25°C
T1 construct: purchased Sigma A2522; host or cells: rabbit muscle (tissue-purified)
Protocol: SPR was performed on a BIAcore 3000 instrument (BIAcore, Uppsala, Sweden). Actin was diluted in 100 mM CH3COONa pH 4.6 to a final concentration of 20μg/ml (200μl total) resulting in ~1ng immobilized actin on a CM5 BIAcore sensor chip (GE Healthcare Bio-Sciences AB) using the standard BIAcore amine coupling chemistry protocol. The CM5 chip allows four separate flow cells to be operated in the BIAcore 3000 instrument used in these experiments. Coupling is achieved by activating the surface of the sensor chips with equal volumes of 50 mM N-hydroxysuccimide (NHS)/200 mM Nethyl-N-(3-[…])-carboiimide (EDC) (BIAcore, AB, Uppsala, Sweden) to form activated carboxyl groups. In the BIAcore protocol the binding is believed to be between carboxyl groups on the surface and amine groups on the protein. The actin solution (15 μg/ml) was then run over the chip for 5 min at a rate of 10 μl/min, where the amine groups on protein react with the activated esters. In the final stage of immobilization, the surface was blocked by 1M ethanol amine, pH 8.0. The binding assay was performed by injecting the hRNASET2, trT2-50, trT2-50m or peptides solutions in running buffer (HBS-10mM Hepes, 150mM Sodium Chloride, 3mM EDTA, 0.005% Polysorbate 20) at 5 different concentrations at a flow rate of 10 μl/min at 25°C. Injections were performed simultaneously over all four channels and blank surface a plain dextran matrix (channel 1) was used as control. The net signal was obtained by subtracting the blank signal from the signal of the immobilized surface. The association phase for protein or peptides binding to actin was followed for 4 min, and dissociation phases were monitored for 3 min. Surface regeneration between consecutive binding cycles included a 1 min injection of 1 mM NaOH. The response was monitored as a function of time (sensorgram) at 25°C. Multi-concentration data were globally fit using BIA evaluation 3.2 software.
The strength of a two molecule interaction is characterized by the equilibrium dissociation (binding) constant KD =[P][L]/[PL], where [P] is the concentration of free protein (or peptide), [L] the concentration of ligand and [PL] the concentration of the complex. At equilibrium, KD is related to the rate of complex formation (described by the association rate constant, ka) and the rate of breakdown (described by the dissociation rate constant, kd ), such that KD =[…]. A high affinity interaction is characterized by a low KD, rapid recognition and binding by high ka, and stability of complex formation by low kd.

[2] = system: HUVEC (VEGF-induced tube formation); experiment: HUVEC tube formation assay on Matrigel, VEGF-induced; assay type: cell-based, human; details: 2 μM, VEGF 1 μg/ml, 8 h, vs PBS control, N=5
Protocol: (§1) Figure 4 trT2-50m and peptides A103-Q159 (57aa) and K108-K133 (26aa) inhibit angiogenin- and VEGF-induced HUVEC tube formation on Matrigel Freshly isolated HUVECs were plated in a 96-well plate previously coated with Matrigel. (A): Cells were treated with either peptide A103-Q159, K108-K133 or K108-L123 (2μM) or PBS (control), in addition to angiogenin or VEGF (1 μg/ml). (B): tube formation was assessed using Image J, the results are represented as percent of control. […] (C): Cells were treated with trT2-50m (2μM) or PBS (control), in addition to angiogenin or VEGF (1 μg/ml).
(§2) Freshly isolated HUVEC were maintained in endothelial cell growth medium (EGM) supplemented with SingleQuots (EGM BulletKit CC-3124, Lonza). They were then plated in a 96-well plates (14 × 10^3 cells/well) previously coated with growth factor-depleted Matrigel (Becton-Dickinson, Bedford, MA) in M199 medium supplemented with 20% FBS, 1% glutamine, 1% antibiotic–antimycotic solution (Biological Industries) and 50 U/100 ml heparin (Biomedical Technologies Inc., Stoughton, MA). Cells were treated with trT2-50m (2 μM), peptides or PBS, in addition to angiogenin (R&D Systems, Inc. Minneapolis, MN), or VEGF (Protein Laboratories, Rehovot, Israel) (1 μg/ml each). After 8 h of incubation at 37°C, the plates were photographed and the extent of tube formation was counted using Image J (NIH, Bethesda, MD) software. […]

actin = actin (Oryctolagus cuniculus, UniProt P68135); experiment: Actin binding solid phase assay (ELISA); details: from 500 ng/well, 1 h at 37°C, discussion also refers to BIAcore
Description: For further insight on the actin binding site within the hRNASET2 protein sequence we tested 29 suspected peptides for their ability to bind actin. The actin-binding capability of the 29 synthetic peptides was compared to the binding capability of trT2-50 using a solid phase actin binding assay. […] We next tested the interaction kinetics to evaluate the interaction nature as described for trT2-50 and trT2-50m. […] In addition, there is a linear relation between the protein concentration and the maximal (steady-state) response for peptides A103-Q159 and K108-K133, indicating the pseudo-first-order regime in relation to the immobilized actin.
96-well plates (MaxiSorp® flat-bottom 96-well plate, Fisher Scientific Inc., Fair Lawn, NJ) were coated with 500 ng actin in 100 μl carbonate-bicarbonate buffer (pH 9.5) for 1 h at 37°C. The plate was washed once with TBS and then blocked with 3% BSA in 200 μl TBS buffer at 37°C, for 1 h. Wells were then washed once with 250 μl TBS. trT2-50, trT2-50m or each of the 29 peptides were added at 1:2 dilutions in 100 μl TBS, starting from 500 ng/well, incubated for 1 h at 37°C and then washed three times with TBS containing 0.1% Tween-20 (TBST). […] Absorbance at 655 nm was measured 10 min thereafter using a Power Wave 200 Microplate Scanning Spectrophotometer (Bio-Tek Instrument, Winooski, VT). Affinity was evaluated by double reciprocal plot.

[3] = system: HUVEC (angiogenin-induced tube formation); experiment: HUVEC tube formation assay on Matrigel, angiogenin-induced; assay type: cell-based, human; details: 2 μM, angiogenin 1 μg/ml, 8 h, vs PBS control, N=5
Protocol: as §1, §2

HUVECs = experiment: Immunofluorescence: localization and co-localization of peptide and angiogenin in HUVECs; assay type: cell-based, human; details: anti-angiogenin (red)
Protocol: Cells were cultured on PBS-covered slides in 12-well plates with 0.1% pork gelatin (Sigma-Aldrich) and were incubated with peptide K108-K133 or angiogenin. Cells were fixed with 3% Paraformaldehyde (PFA) (Merck Millipore, Dermstadt, Germany) containing 0.5% triton, washed three times with PBS and blocked with 5% donkey serum (Jackson ImmunoResearch). Rabbit anti-angiogenin (Merck Millipore) was added (1:100 dilution; prepared in 5% donkey serum) and incubated overnight at 4°C. After washing three times with TBST, the slides were incubated for 1 h with Alexa 488-conjugated anti-rabbit antibody (Invitrogen Life Technologies) and phalloidin tetramethylrhodamine B isothiocyanate–conjugated […] (Sigma-Aldrich), and then washed, and mounted with a mixture containing 30% mounting medium, 4′,6-diamidino-2-phenylindole (DAPI) (Santa Cruz Biotechnology Inc., Santa Cruz, CA) and 70% fluoromount (Sigma-Aldrich). The slides were viewed under a Leicactr4000 laser scanning confocal microscope.

CAM = experiment: Ex ovo CAM angiogenesis assay; assay type: in vivo, chicken; details: 3 μg on filter paper disk every day for 4 days from day 8, vs PBS; N=3 for hRNASET2 and trT2-50, N=5 for peptides and PBS
Protocol: In this assay we used fertilized eggs cracked into a petri dish after […] of incubation in 37°C and 60% humidity. In the following days, the embryos developed a vascular network. Treatment began on the eighth day of incubation and was delivered drop-wise onto disks of Whatman paper that had been placed on the developing vascular regions. The treatment was performed every day for 4 days. The number of blood vessels around the treated disk was counted every day.
Fertilized chicken eggs were incubated horizontally at 37°C and humidity of 60 - 62% and cracked into Petri dishes at embryonic day 4. Incubation was continued under the same conditions. On day 8, sterile filter paper disks (5.5 mm in diameter) were layered on top of the CAM and soaked either with 5 μl PBS or 3 μg hRNASET2, trT2-50, peptide A103-Q159 or peptide K108-K133. Treatment was given every day for four days, then, the number of blood vessels around the treated disks was counted. (For hRNASET2 and trT2-50, N=3; for peptide A103-Q159, peptide K108-K133 and PBS, N=5).

## CC[C@H](C)[C@H](NC(=O)CNC(=O)[C@H](CC(C)C)NC(=O)[C@H](CCCCN)NC(=O)[C@H](CC(C)C)NC(=O)[C@H](CC(C)C)NC(=O)[C@@H](NC(=O)[C@H](CO)NC(=O)[C@H](CC(N)=O)NC(=O)[C@H](CC(C)C)NC(=O)[C@H](CC(=O)O)NC(=O)[C@H](CC(C)C)NC(=O)[C@H](CCC(=O)O)NC(=O)[C@H](CCCNC(=N)N)NC(=O)[C@H](Cc1ccc(O)cc1)NC(=O)[C@H](CC(C)C)NC(=O)[C@H](CCC(=O)O)NC(=O)[C@H](CC(C)C)NC(=O)[C@H](CO)NC(=O)[C@H](CCCNC(=N)N)NC(=O)CNC(=O)[C@H](Cc1ccccc1)NC(=O)[C@H](Cc1ccc(O)cc1)NC(=O)[C@H](CCCCN)NC(=O)[C@@H](N)CCCCN)C(C)C)C(=O)N[C@@H](CCCCN)C(=O)O [Peptide K108-K133]
[1]; HBS (10mM Hepes, 150mM NaCl, 3mM EDTA, 0.005% Polysorbate 20), association 4 min, dissociation 3 min, global fit BIAevaluation 3.2, read-out: association rate Ka
  kon: 14200 M⁻¹ s⁻¹
[1]; HBS (10mM Hepes, 150mM NaCl, 3mM EDTA, 0.005% Polysorbate 20), dissociation 3 min, global fit BIAevaluation 3.2, read-out: dissociation rate Kd
  koff: 0.0458 s⁻¹

## Peptide K108-L123: peptide K108-L123 (16 aa) that failed to bind actin
[2]
  inhibition of VEGF-induced tube formation (in words): unable to inhibit tube formation
actin
  ability to bind actin (in words): failed to bind actin
[3]
  inhibition of angiogenin-induced tube formation (in words): unable to inhibit tube formation

## angiogenin: angiogenin (R&D Systems, Inc. Minneapolis, MN)
HUVECs; 2 and 8 h of incubation with the peptide and angiogenin
  localization of angiogenin in presence of peptide K108-K133: Same angiogenin localization was observed after 2 and 8 h
HUVECs; 10 min of incubation with the peptide and angiogenin
  localization of angiogenin in presence of peptide K108-K133: located in the nucleus, the cytoplasm surrounding the nucleus, on the actin fibers and outside the cell

## hRNASET2: full-length human RNASET2, produced in CHO, T2BIOTECH Ltd
CAM
  blood vessels around the treated disk: fewer blood vessels developed compared to the control
[1]; HBS (10mM Hepes, 150mM NaCl, 3mM EDTA, 0.005% Polysorbate 20), association 4 min, dissociation 3 min, global fit BIAevaluation 3.2
  association rate Ka: 2.40 × 10^3 (1/Ms)
[1]; HBS (10mM Hepes, 150mM NaCl, 3mM EDTA, 0.005% Polysorbate 20), dissociation 3 min, global fit BIAevaluation 3.2
  dissociation rate Kd: 0.00346 s⁻¹
[1]; HBS, determined from kinetic analyses, BIAevaluation 3.2, read-out: dissociation constant KD
  Kd: 1440 nM
